# In patent US8173654B2, “Triazolopyridazine compounds” (Janssen Pharmaceutica N.V., priority 2005, dated 2012):
# Key:
# [1] = test system: U87MG glioblastoma tumors; experiment: U87MG glioblastoma tumor xenograft model (tumor growth inhibition); assay type: in vivo, athymic nude mice
# Method: The U87MG glioblsatoma cell line (Piedmont Research Center LLC) expresses the c-Met receptor and responds to Human Growth Factor (HGF). This study investigated whether treatment with an inhibitor of c-Met is efficacious against the U87MG glioblastoma tumor xenograft model. This study utilized a tumor growth inhibition (TGI) assay to test per os (p.o.) compound monotherapy in groups of fifteen nude mice. A control group was treated with vehicle, 20% Hydroxypropyl Beta-Cyclodextrin (HPBCD). All treatments began on Day 1 (D1) in mice bearing established subcutaneous (s.c.) U87MG tumors.
# Female athymic nude mice (Harlan) were 10-11 weeks old with a BW range of 18.1-25.0 g on D1 of the study. The animals were fed ad libitum water (reverse osmosis, 1 ppm Cl) and NIH 31 Modified and Irradiated Lab Diet® consisting of 18.0% crude protein, 5.0% crude fat, and 5.0% crude fiber. The mice were housed on irradiated ALPHA-dri® Bed-o-cobs® Laboratory Animal Bedding in static microisolators on a 12-hour light cycle at 21-22° C. (70-72° F.) and 40-60% humidity. All animals were housed in a Laboratory Animal Medicine facility that is fully accredited by the American Association for Assessment and Accreditation of Laboratory Animal Care (AAALAC). All procedures involving animals were conducted in compliance with the NIH Guide for the Care and Use of Laboratory Animals and all protocols were approved by an Internal Animal Care and Use Committee (IACUC).
# Xenografts were initiated from U87MG human glioblastoma tumor fragments maintained by serial transplantation in athymic nude mice. Each test mouse received a subcutaneous U87MG tumor fragment (1 mm^3) implanted in the right flank, and the growth of tumors was monitored as the average size approached 200 mm^3. Twelve days later, on Day 1 of the study, the animals were sorted into 4 groups (n=12-15 mice/group) with individual tumor volumes ranging from 172-352 mm^3 and group mean tumor volumes of 216 mm^3. Tumor volume was calculated using the formula:
# [formula] where w=width and l=length in mm of the tumor. Tumor weight may be estimated with the assumption that 1 mg is equivalent to 1 mm^3 of tumor volume. Drug Treatment
# Dosing solutions of compounds of the present invention were prepared fresh weekly in a vehicle consisting of 20% Hydroxypropyl Beta-Cyclodextrin (HPBCD) in water. In all groups, the dosing volume of 0.2 mL/20-g mouse was scaled to the body weight of each animal. Doses were given to allow for the HCl salt form of the compound.
# TGI was calculated from the difference between the median tumor volumes of vehicle-treated and drug-treated mice, expressed as a percentage of the median tumor volume of the vehicle-treated control group, by the following relation:
# The MTV (n) is defined as the median tumor volume (MTV) for the number of animals, n, remaining in the study on that day.
# Animals were weighed daily for the first five days of the study and then twice weekly. The mice were examined frequently for overt signs of any adverse, drug-related side effects, and clinical signs of toxicity were recorded when observed. Acceptable toxicity is defined as a group mean body-weight (BW) loss of less than 20% during the study, and not more than one treatment-related (TR) death among ten animals. A death is classified as TR if it is attributable to treatment side effects as evidenced by clinical signs and/or necropsy, or due to unknown causes during the dosing period or within 10 days of the last dose. A death is classified as non treatment-related (NTR) if there is no evidence that the death was related to drug side effects. A death is classified as non treatment-related unknown (NTRu) if the cause of death is unknown.
# The Mann-Whitney U-test, for analysis of medians, was used to determine the statistical significance of the difference between the MTVs. Prism 3.03 (GraphPad) for Windows was used for the statistical analyses and graphic presentations. […]
# [2] = target: c-Met (Homo sapiens, UniProt P08581); experiment: Delfia autophosphorylation kinase assay on the c-Met; assay type: biochemical; parameters: The purified His6 tagged cytoplasmic domain of c-Met was diluted to a concentration of 500 ng/ml; host or cells: Sf9 insect cells (baculovirus, pFastBacHTa); settings: His6 tagged cytoplasmic domain of c-Met, 1 μM ATP; read-out: cMet Delfia autophos IC-50
# Sequence of c-Met (P08581 956-1390 limits assumed): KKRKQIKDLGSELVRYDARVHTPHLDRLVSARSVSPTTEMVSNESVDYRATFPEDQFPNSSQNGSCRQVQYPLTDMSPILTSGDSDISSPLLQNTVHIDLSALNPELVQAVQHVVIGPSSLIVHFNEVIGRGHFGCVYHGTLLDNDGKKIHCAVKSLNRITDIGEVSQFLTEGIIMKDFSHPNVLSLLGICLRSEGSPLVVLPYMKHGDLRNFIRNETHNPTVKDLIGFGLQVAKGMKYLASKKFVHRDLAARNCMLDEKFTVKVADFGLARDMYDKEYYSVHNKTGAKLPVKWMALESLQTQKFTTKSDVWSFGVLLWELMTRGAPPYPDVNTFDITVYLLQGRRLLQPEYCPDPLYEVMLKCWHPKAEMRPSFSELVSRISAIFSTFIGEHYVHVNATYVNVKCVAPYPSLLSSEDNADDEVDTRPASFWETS
# Procedure, shortened: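 Time-resolved fluorescence tracked autophosphorylation of the His6-tagged c-Met cytoplasmic domain, dispensed at 500 ng/ml onto nickel-chelate plates. Reaction buffer held 1 μM ATP, 10 mM MgCl2, vanadate and DTT at pH 8.0, for 1 h at room temperature.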
smiles,measurement,setting,value
"Cn1cc(-c2ccc3nnc(C(F)(F)c4ccc5ncccc5c4)n3n2)cn1 [Example 61, 6-{Difluoro-[6-(1-methyl-1H-pyrazol-4-yl)-[1,2,4]triazolo[4,3-b]pyridazin-3-yl]-methyl}-quinoline]",decrease of mean tumor volume,"[1]; 25 mg/kg p.o., q.d. on day 1 and b.i.d. to day 12, Day 12, p<0.01",94%
same,decrease of mean tumor volume,"[1]; 50 mg/kg p.o., b.i.d. for 7 days, 24-hr pause, then q.d. to day 12, Day 12, p<0.01",96%
same,decrease of mean tumor volume,"[1]; 75 mg/kg p.o., b.i.d. for 7 days, 24-hr pause, then q.d. to day 12, Day 12, p<0.01",97%
same,tumor regression,"[1]; 25, 50 and 75 mg/kg p.o., 12 days",Tumor regression was also observed with all three doses
same,tumor growth inhibition of U87MG tumors,"[1]; 25, 50 and 75 mg/kg p.o., 12 days, p<0.01","statistically significant, tumor growth inhibition"
same,IC50,[2],1 nM
